In patent US20180002288A1, “USE OF PICOLINAMIDES AS FUNGICIDES” (DOW AGROSCIENCES LLC, priority 2014, published 2018):
Read-outs that look alike come from different tables or passages of the source.

Legend:
Pyricularia oryzae = test: whole plant or invertebrate; type: in vivo; conditions: 24 h, read-out: PYRIOR % Control rating
Leptosphaeria nodorum = test: Wheat Glume Blotch fungicidal activity (LEPTNO); type: in vivo; conditions: Parastagonospora nodorum, 24 h, high volume, 1 Day Protectant, read-out: LEPTNO % Control rating
Protocol: All fungicides were evaluated using the aforementioned method for their activity vs. all target diseases, unless stated otherwise. Wheat leaf blotch and brown rust activity were also evaluated using track spray applications, in which case the fungicides were formulated as EC formulations, containing 0.1% Trycol 5941 in the spray solutions. Wheat plants (variety Yuma) were grown from seed in a greenhouse in 50% mineral soil/50% soil-less Metro mix until the first leaf was fully emerged, with 7-10 seedlings per pot. These plants were inoculated with an aqueous spore suspension of Zymoseptoria tritici either prior to or after fungicide treatments. After inoculation the plants were kept in 100% relative humidity (one day in a dark dew chamber followed by two to three days in a lighted dew chamber at 20° C.) to permit spores to germinate and infect the leaf. The plants were then transferred to a greenhouse set at 20° C. for disease to develop. When disease symptoms were fully expressed on the 1st leaves of untreated plants, infection levels were assessed on a scale of 0 to 100 percent disease severity. Percent disease control was calculated using the ratio of disease severity on treated plants relative to untreated plants. Wheat plants (variety Yuma) were grown from seed in a greenhouse in 50% mineral soil/50% soil-less Metro mix until the first leaf was fully emerged, with 7-10 seedlings per pot. These plants were inoculated with an aqueous spore suspension of Leptosphaeria nodorum 24 hr after fungicide treatments. After inoculation the plants were kept in 100% relative humidity (one day in a dark dew chamber followed by two days in a lighted dew chamber at 20° C.) to permit spores to germinate and infect the leaf. The plants were then transferred to a greenhouse set at 20° C. for disease to develop. Fungicide formulation, application and disease assessment followed the procedures as described in the Example A.

Phakopsora pachyrhizi = test: Asian Soybean Rust fungicidal activity (PHAKPA); conditions: Phakopsora pachyrhizi, in Glycine max
Zymoseptoria tritici = test: Leaf Blotch of Wheat fungicidal activity (SEPTTR); type: in vivo; conditions: Low Volume Cereal Activity at 121.5 g/Ha
Puccinia triticina = test: Wheat Brown Rust fungicidal activity (PUCCRT); type: in vivo; conditions: Low Volume Cereal Activity at 121.5 g/Ha
[1] = tested on: Colletotrichum lagenarium; test: Cucumber Anthracnose fungicidal activity (COLLLA); type: in vivo; conditions: Colletotrichum orbiculare, 24 h, high volume, 1 Day Protectant, read-out: COLLLA % Control rating
Protocol: All fungicides were evaluated using the aforementioned method for their activity vs. all target diseases, unless stated otherwise. Wheat leaf blotch and brown rust activity were also evaluated using track spray applications, in which case the fungicides were formulated as EC formulations, containing 0.1% Trycol 5941 in the spray solutions. Wheat plants (variety Yuma) were grown from seed in a greenhouse in 50% mineral soil/50% soil-less Metro mix until the first leaf was fully emerged, with 7-10 seedlings per pot. These plants were inoculated with an aqueous spore suspension of Zymoseptoria tritici either prior to or after fungicide treatments. After inoculation the plants were kept in 100% relative humidity (one day in a dark dew chamber followed by two to three days in a lighted dew chamber at 20° C.) to permit spores to germinate and infect the leaf. The plants were then transferred to a greenhouse set at 20° C. for disease to develop. When disease symptoms were fully expressed on the 1st leaves of untreated plants, infection levels were assessed on a scale of 0 to 100 percent disease severity. Percent disease control was calculated using the ratio of disease severity on treated plants relative to untreated plants. Cucumber seedlings (variety Bush Pickle) were propagated in soil-less Metro mix, with each pot having one plant, and used in the test when 12 to 14 days old. Test plants were inoculated with an aqueous spore suspension of Colletotrichum lagenarium 24 hr after fungicide treatments. After inoculation the plants were kept in a dew room at 22° C. with 100% relative humidity for 48 hr to permit spores to germinate and infect the leaf. The plants were then transferred to a growth room set at 22° C. for disease to develop. Fungicide formulation, application and disease assessment on the sprayed leaves followed the procedures as described in the Example A.

[2] = 24 h, read-out: PHAKPA 1DP % Control rating, soybean, high volume, 25 ppm, 1 Day Protectant
[3] = 72 h, read-out: PHAKPA 3DC % Control rating, soybean, high volume, 25 ppm, 3 Day Curative
[4] = 24 h, 1 Day Protectant, read-out: SEPTTR 1DP (Wheat Leaf Blotch, 1 Day Protectant)
[5] = 72 h, 3 Day Curative, read-out: SEPTTR 3DC (Wheat Leaf Blotch, 3 Day Curative)
[6] = 24 h, 1 Day Protectant, read-out: PUCCRT 1DP (Wheat Brown Rust, 1 Day Protectant)
[7] = 72 h, 3 Day Curative, read-out: PUCCRT 3DC (Wheat Brown Rust, 3 Day Curative)

| SMILES | pest or weed control at 100 ppm (Pyricularia oryzae) [%] | pest or weed control at 100 ppm (Leptosphaeria nodorum) [%] | pest or weed control at 25 ppm (Phakopsora pachyrhizi; [2]) [%] | pest or weed control at 25 ppm (Phakopsora pachyrhizi; [3]) [%] | pest or weed control at 121.5 g/ha (Zymoseptoria tritici; [4]) [%] | pest or weed control at 121.5 g/ha (Zymoseptoria tritici; [5]) [%] | pest or weed control at 121.5 g/ha (Puccinia triticina; [6]) [%] | pest or weed control at 121.5 g/ha (Puccinia triticina; [7]) [%] | pest or weed control at 100 ppm [1] [%] |
| --- | --- | --- | --- | --- | --- | --- | --- | --- | --- |
| COc1ccnc(C(=O)N[C@@H](C)C(=O)O[C@@H](C)[C@H](Oc2ccccc2)c2ccc(F)cc2Cl)c1OCOC(C)=O [Example 260] | > 80 | > 80 | > 80 | < 80 | > 80 | > 80 | > 80 | > 80 | > 80 |
| COc1ccccc1[C@@H](Oc1ccccc1)[C@H](C)OC(=O)[C@H](C)NC(=O)c1nccc(OC)c1OCOC(C)=O [Example 255] | > 80 | > 80 | > 80 | < 0 | > 80 | > 80 | > 80 | > 80 | > 80 |
| COc1ccnc(C(=O)N[C@@H](C)C(=O)O[C@@H](C)[C@H](Oc2ccccc2)c2ccc(F)cc2F)c1OCOC(C)=O [Example 250] | < 80 | < 0 | > 80 | < 80 | > 80 | > 80 | > 80 | > 80 | > 80 |
| COc1ccnc(C(=O)N[C@@H](C)C(=O)O[C@@H](C)[C@H](Oc2cccc(F)c2)c2ccccc2)c1OCOC(C)=O [Example 187] | > 80 | > 80 | > 80 | < 80 | > 80 | > 80 | > 80 | > 80 | > 80 |
| COc1ccnc(C(=O)N[C@@H](C)C(=O)O[C@@H](C)[C@H](Oc2cccc(Cl)c2)c2ccccc2)c1OCOC(C)=O [Example 202] | < 80 | < 80 | > 80 | < 80 | > 80 | > 80 | > 80 | < 80 | < 80 |
| COc1ccnc(C(=O)N[C@@H](C)C(=O)O[C@@H](C)C(Oc2ccc(F)cc2)c2ccccc2)c1OC(C)=O (stereo partly drawn) [Example 236] | > 80 | > 80 | > 80 | < 0 | > 80 | > 80 | > 80 | > 80 | < 80 |
| COc1ccnc(C(=O)N[C@@H](C)C(=O)O[C@@H](C)[C@H](Oc2ccc(F)cc2)c2ccccc2)c1OCOC(C)=O [Example 237] | > 80 | > 80 | < 80 | < 80 | > 80 | > 80 | > 80 | > 80 | < 80 |
